≈ marks a conversion by molar mass, not a printed value.
Tests used:
[1] = solubility by nephelometry; assay type: physicochemical; settings: PBS buffer with 1% DMSO; maximum solubility by nephelometry
Description: Prior to use, the pre-coated PAMPA plate system was warmed to rt for 30 min and 300 μL of 200 μM solution of tested compound in 2% DMSO in PBS were added to the wells in the receiver (donor) plate.
Then, 200 μL of PBS were added to the wells in the filter (acceptor) plate. The filter plate was placed on the receiver plate by slowly lowering the pre-coated PAMPA plate until it sits on the receiver plate. The assembly was incubated at rt for 5 h, and then buffer samples were collected carefully from each plate. […]
CD(t) = compound concentration (μM) in donor well at time t, and Ceq = […]
Solubility. […] The solutions were i ncubated for 2 h at 37 °C and read in a NEPHELOstar Plus instrument (BMG LABTECH). […]
Fluorescence per well was measured using a fluorescence plate reader (Tecan Infinite M1000 pro) and percentage of inhibition was calculated. hERG ion channel inhibition. […] Cell s were maintained at 37 °C in a 5% CO2 atmosphere for 24 h and at 30 °C in a 5% CO 2 atmosphere for 48 h. hERG activity was measured by using the FluxorTM Potassium Ion Chanel Assay Kit (Thermo Fisher F10016). […] After this time, 5 µL of stimulus buffer was added to each well and fluorescence was read (λ ex = 490 nm, λem = 525 nm) every second after the establishment of a baseline line using an imaging plate reader system (FDSS7000EX, Hamamatsu®). […]

CYP2C9 = biological target: T1, CYP2C9 (Homo sapiens, UniProt P11712); assay: cytochrome inhibition, fluorescence assay, CYP2C9; assay type: in vitro ADME
T1 construct: host or cells: insect cell microsomes
Description: Cytochrome inhibition. The objective of this study was to screen the potential of test […]
performed using recombinant isoforms CYP1A2, CYP2C9, CYP2C19, CYP2D6, and CYP3A4, and probe substrates with fluorescent detection.
Assays were conducted in a 200 µL volume in 96-well microtiter plates (COSTAR 3915).
Addition of cofactor-buffer mixture (KH2PO4 buffer, 1.3 mM NADP, 3.3 mM MgCl2, 3.3 mM glucose -6- phosphate, and 0.4 U/mL glucose -6- phosphate dehydrogenase), supersomes control, standard inhibitors (furafyline, tranylzypromine, ketoconazole, sulfaphenazole, and quinidine from Sigma Aldrich) and test compound to the plate was carried out by a liquid handling station (Zephyr Caliper). The plate was then pre-incubated at 37 °C for 5 min, and the reaction was initiated by the addition of the pr e - warmed enzyme/substrate (E/S) mix. […]
Fluorescence per well was measured using a fluorescence plate reader (Tecan Infinite M1000 pro) and percentage of inhibition was calculated. hERG ion channel inhibition. […]

mouse D1R = biological target: T2, mouse D1R (Mus musculus, UniProt Q61616); assay: potentiator-mode cAMP assay in mouse CAD neuroblastoma cell line; assay type: cell-based; settings: mouse CAD neuroblastoma cells
T2 construct: human SK-N-MC and mouse CAD neuroblastoma cell lines; endogenous in cells; host or cells: mouse CAD neuroblastoma cell line
Description: In order to ascertain if this allosteric potentiation was due to a modulation on DA affinity, radioligand binding assays in the presence of DA IC50 (4 μM) were carried out.
Compound 26 was tested in the potentiator-mode cAMP assay at different fixed concentrations (1, 5, and 10 μM). […] Therefore, it should have negligible direct activating effects on the human D1R in the absence of the endogenous ligand.
Figure 3 (A) Concentration–response curves in human D1R for cAMP production of DA alone (black) and in the presence of different concentrations of compound 26. (B) Concentration–response curves in human D1R of DA (black), 10 μM 26 for 10 min (red), and 10 μM 26 for 10 min then washing with assay buffer (blue). (C) Concentration–response curves in mouse D1R of DA alone (black) and in the presence of 10 μM 26 (red). (D) Concentration–response curve in human D1R of compound 26 in the presence of DA EC70 concentration. (E) Concentration–response curves in human D1R of DA (black) and compound 26 (red). (F) Concentration–response curves in human D1R of DA (red), after preincubation for 1 h with 10 μM DA (black), with 10 μM 26 (green), and with both 10 μM DA and 10 μM 26 (blue).

T1 sequence (P11712 whole entry): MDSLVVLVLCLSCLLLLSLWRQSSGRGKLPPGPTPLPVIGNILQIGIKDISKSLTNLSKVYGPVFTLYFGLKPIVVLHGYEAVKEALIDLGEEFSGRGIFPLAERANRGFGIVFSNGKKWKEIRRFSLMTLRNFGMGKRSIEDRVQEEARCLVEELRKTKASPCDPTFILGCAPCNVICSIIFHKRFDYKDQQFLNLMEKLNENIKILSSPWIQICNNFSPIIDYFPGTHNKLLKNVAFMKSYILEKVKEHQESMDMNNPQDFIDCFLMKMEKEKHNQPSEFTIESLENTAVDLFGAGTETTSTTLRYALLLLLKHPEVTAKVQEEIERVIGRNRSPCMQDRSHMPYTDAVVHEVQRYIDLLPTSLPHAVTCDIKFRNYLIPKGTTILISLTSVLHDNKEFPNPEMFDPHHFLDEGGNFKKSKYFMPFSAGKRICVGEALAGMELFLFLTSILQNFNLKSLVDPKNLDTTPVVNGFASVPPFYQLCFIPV
T2 sequence (Q61616 whole entry): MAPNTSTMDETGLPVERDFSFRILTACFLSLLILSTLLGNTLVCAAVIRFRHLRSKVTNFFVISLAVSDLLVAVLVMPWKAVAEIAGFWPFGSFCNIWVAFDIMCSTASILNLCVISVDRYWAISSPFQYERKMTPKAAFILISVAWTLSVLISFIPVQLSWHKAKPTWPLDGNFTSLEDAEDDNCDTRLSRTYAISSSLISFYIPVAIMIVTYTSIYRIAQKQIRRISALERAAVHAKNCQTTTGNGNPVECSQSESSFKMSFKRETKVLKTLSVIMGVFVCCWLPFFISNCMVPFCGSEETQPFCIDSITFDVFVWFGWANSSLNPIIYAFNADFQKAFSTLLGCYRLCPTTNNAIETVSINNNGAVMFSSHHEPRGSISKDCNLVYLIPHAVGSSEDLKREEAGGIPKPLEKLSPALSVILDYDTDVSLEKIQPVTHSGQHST

| Compound | solubility at 2 h [1] [µM] | CYP2C9 (%) (CYP2C9; Table S1, concentration not given) | potentiation of DA effect in mouse D1R (mouse D1R) | CYP2C9 (%) (CYP2C9; percentage of inhibition at 10 μM) |
| --- | --- | --- | --- | --- |
| O=Cc1ccc(-c2ccccc2OCF)cc1 [Compound 3, 2′-(Fluoromethoxy)[1,1′-biphenyl]-4-carbaldehyde] | 15 (≈ 3.45 µg/mL) | inactive | concentration-dependent potentiation of DA effect |  |
| CS(=N)(=O)c1ccc(-c2ccccc2OCF)cc1 (stereo not drawn) [Compound 26, 2-(Fluoromethoxy)-4′-(S-methanesulfonimidoyl)-1,1′-biphenyl] | 50 (≈ 14 µg/mL) |  | PAM behavior was also observed | 38 ± 3 |
